# Data reported in patent US8350027B2, “Dual-acting pyrazole antihypertensive agents” (Theravance, Inc., priority 2009, dated 2013).
# Legend:
# [1] = target: T1, human AT1 receptor (Homo sapiens, UniProt P30556); assay: AT1 radioligand binding assay (displacement of [Eu]AngII); settings: membranes of CHO-K1 cells expressing cloned human AT1 receptor; values given as lower bounds; read-out: AT1 pKi (converted)
# T1 construct: expressed in transfected cells; host or cells: CHO-K1
# T1 sequence (P30556 1-359): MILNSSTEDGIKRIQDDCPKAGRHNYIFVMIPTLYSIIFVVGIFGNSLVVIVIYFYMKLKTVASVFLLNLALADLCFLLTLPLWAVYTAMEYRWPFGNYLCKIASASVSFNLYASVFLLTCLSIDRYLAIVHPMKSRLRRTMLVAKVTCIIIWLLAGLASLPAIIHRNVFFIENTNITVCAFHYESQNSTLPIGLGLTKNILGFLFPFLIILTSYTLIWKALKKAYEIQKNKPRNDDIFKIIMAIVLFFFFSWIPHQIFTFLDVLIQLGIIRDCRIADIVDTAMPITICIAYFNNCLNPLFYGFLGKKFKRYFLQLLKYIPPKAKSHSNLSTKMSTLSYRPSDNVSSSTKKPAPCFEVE
# How it was run: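 Membranes from CHO-K1 cells stably expressing cloned human AT1, 0.2 μg protein, in 50 mM Tris/HCl pH 7.5, 5 mM MgCl2, 0.025% BSA. Compounds displaced [Eu]AngII over 120 min in the dark at room temperature or 37° C; filter-bound TRF read. Nonspecific binding with 10 μM angiotensin II; IC50 converted to Ki via Cheng-Prusoff, reported as pKi.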
# [2] = target: T2, NEP enzyme (Homo sapiens, UniProt P08473); assay: NEP enzyme inhibition assay (fluorogenic peptide substrate); assay type: biochemical; settings: values given as lower bounds; * = prodrugs, may not exhibit NEP activity in an in vitro assay; read-out: NEP pIC50 (converted)
# T2 construct: purchased R&D Systems, Minneapolis, Minn; 1182-ZN
# How it was run: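 Recombinant human NEP was run with Mca-BK2 (10 μM) at room temperature in Tris buffer with 1 μM Zn. Compounds (10 μM–20 pM, 12 points) were pre-equilibrated 10 min, then reacted 20 min and acid-stopped. Fluorescence ex 320/em 405 nm, one-site competition fit gives pIC50. Thiol compounds may be pre-treated with 400 μM TCEP.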
# T2 sequence (P08473 52-750 limits assumed): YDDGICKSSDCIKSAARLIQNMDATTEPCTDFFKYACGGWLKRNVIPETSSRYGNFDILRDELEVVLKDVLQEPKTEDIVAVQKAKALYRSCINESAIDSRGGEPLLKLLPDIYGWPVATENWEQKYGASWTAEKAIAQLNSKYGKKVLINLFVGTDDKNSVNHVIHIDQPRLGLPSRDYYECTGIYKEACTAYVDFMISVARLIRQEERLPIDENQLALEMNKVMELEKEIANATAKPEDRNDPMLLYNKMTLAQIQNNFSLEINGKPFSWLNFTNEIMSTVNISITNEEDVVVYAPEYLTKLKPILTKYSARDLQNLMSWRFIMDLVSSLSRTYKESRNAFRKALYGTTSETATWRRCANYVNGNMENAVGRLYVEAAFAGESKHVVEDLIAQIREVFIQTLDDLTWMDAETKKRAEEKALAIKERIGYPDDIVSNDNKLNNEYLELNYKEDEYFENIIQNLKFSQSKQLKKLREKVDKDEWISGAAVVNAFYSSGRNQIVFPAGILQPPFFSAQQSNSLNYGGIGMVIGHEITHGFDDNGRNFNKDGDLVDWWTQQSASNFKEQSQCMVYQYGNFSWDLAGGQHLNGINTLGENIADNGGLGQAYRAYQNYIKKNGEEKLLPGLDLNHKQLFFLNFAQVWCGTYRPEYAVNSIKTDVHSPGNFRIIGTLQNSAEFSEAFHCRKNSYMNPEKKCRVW
Ki [1] [nM],IC50 [2] [nM],Structure (SMILES)
≤ 10,≤ 100,"CCCc1cc(C(=O)N[C@@H](CS)Cc2ccccc2)nn1Cc1ccc(-c2ccccc2-c2nnn[nH]2)cc1F [Example 3-2, 1-[3-Fluoro-2′-(1H-tetrazol-5-yl)biphenyl-4-ylmethyl]-5-propyl-1H-pyrazole-3-carboxylic acid ((R)-1-benzyl-2-mercaptoethyl)amide]"
≤ 10,≤ 100,"CCCc1cc(C(=O)N[C@H](Cc2ccccc2)[C@@H](O)C(=O)O)nn1Cc1ccc(-c2ccccc2S(=O)(=O)NC(=O)C(C)(C)O)cc1 [Example 7-14, (2R,3R)-2-Hydroxy-3-({1-[2′-(2-hydroxy-2-methylpropionylsulfamoyl)biphenyl-4-ylmethyl]-5-propyl-1H-pyrazole-3-carbonyl}amino)-4-phenylbutyric acid]"
≤ 10,≤ 100,"CCOc1cc(C(=O)N[C@@H](CS)Cc2ccccc2)nn1Cc1ccc(-c2ccccc2S(=O)(=O)NC(C)=O)cc1F [Example 6-1, 1-(2′-Acetylsulfamoyl-3-fluorobiphenyl-4-ylmethyl)-5-ethoxy-1H-pyrazole-3-carboxylic acid ((R)-1-benzyl-2-mercaptoethyl)amide]"
≤ 100,≤ 100,"CCCc1cc(C(=O)N[C@@H](CS)Cc2ccccc2)nn1Cc1ccc(-c2ccccc2C(=O)O)cc1F [Example 8, 4′-[3-((R)-1-Benzyl-2-mercaptoethylcarbamoyl)-5-propylpyrazol-1-ylmethyl]-3′-fluorobiphenyl-2-carboxylic acid]"
≤ 10,≤ 100,"CCCc1cc(C(=O)N[C@@H](CS)Cc2ccccc2)nn1Cc1ccc(-c2ccccc2-c2nc(=O)o[nH]2)cc1 [Example 16-1, 1-[2′-(5-Oxo-2,5-dihydro-[1,2,4]oxadiazol-3-yl)biphenyl-4-ylmethyl]-5-propyl-1H-pyrazole-3-carboxylic acid ((R)-1-benzyl-2-mercaptoethyl)amide]"
≤ 10,≤ 10000,"CCCc1cc(C(=O)N[C@@H](CC(=O)O)Cc2ccccc2)nn1Cc1ccc(-c2ccccc2-c2nnn[nH]2)cc1F [Example 3-30, (R)-3-({1-[3-Fluoro-2′-(1H-tetrazol-5-yl)biphenyl-4-ylmethyl]-5-propyl-1H-pyrazole-3-carbonyl}amino)-4-phenylbutyric acid]"
≤ 100,≤ 1000,"CCCc1cc(C(=O)N[C@@H](CC(=O)O)Cc2ccccc2Cl)nn1Cc1ccc(-c2ccccc2-c2nnn[nH]2)cn1 [Example 15-2, (R)-4-(2-Chlorophenyl)-3-[(5-propyl-1-{5-[2-(1H-tetrazol-5-yl)phenyl]pyridin-2-ylmethyl}-1H-pyrazole-3-carbonyl)amino]butyric acid]"
≤ 10,≤ 1000,"CCCc1cc(C(=O)N[C@@H](CC(=O)O)Cc2ccccc2Cl)nn1Cc1cnc(-c2ccccc2S(=O)(=O)NC(C)=O)cn1 [Example 17-6, (R)-3-({1-[5-(2-Acetylsulfamoyl-phenyl)-pyrazin-2-ylmethyl]-5-propyl-1H-pyrazole-3-carbonyl}amino)-4-(2-chloro-phenyl)butyric acid]"
≤ 10,≤ 100,"CCCc1cc(C(=O)N[C@H](Cc2ccccc2)[C@@H](O)C(=O)NO)nn1Cc1ccc(-c2ccccc2-c2nnn[nH]2)cc1 [Example 3-17, 1-((2′-(1H-tetrazol-5-yl)biphenyl-4-yl)methyl)-N-((2R,3R)-3-hydroxy-4-(hydroxyamino)-4-oxo-1-phenylbutan-2-yl)-5-propyl-1H-pyrazole-3-carboxamide]"
≤ 10,≤ 1000,"CCCCc1cc(C(=O)N[C@H](Cc2ccccc2)[C@@H](O)C(=O)O)nn1Cc1ccc(-c2ccccc2S(=O)(=O)NC(C)=O)cc1F [Example 6-11, (2R,3R)-3-{[1-(2′-Acetylsulfamoyl-3-fluorobiphenyl-4-ylmethyl)-5-butyl-1H-pyrazole-3-carbonyl]amino}-2-hydroxy-4-phenylbutyric acid]"
≤ 10,≤ 100,"CCCc1cc(C(=O)N[C@@H](CS)CC(C)C)nn1Cc1ccc(-c2ccccc2-c2nnn[nH]2)cc1 [Example 3-7, 5-Propyl-1-[2′-(1H-tetrazol-5-yl)biphenyl-4-ylmethyl]-1H-pyrazole-3-carboxylic acid ((R)-1-mercaptomethyl-3-methylbutyl)amide]"
≤ 10,≤ 100,"CCCc1cc(C(=O)N[C@@H](CC(=O)O)Cc2ccsc2)nn1Cc1ccc(-c2ccccc2-c2nnn[nH]2)nc1 [Example 14-10, (R)-3-[(5-Propyl-1-{6-[2-(1H-tetrazol-5-yl)-phenyl]-pyridin-3-ylmethyl}-1H-pyrazole-3-carbonyl)-amino]-4-thiophen-3-yl-butyric acid]"
≤ 100,≤ 1000,"CCCc1cc(C(=O)N[C@@H](CC(=O)O)Cc2ccccc2C(F)(F)F)nn1Cc1ccc(-c2ccccc2-c2nnn[nH]2)c(F)c1 [Example 3-19, (R)-3-({1-[2-Fluoro-2′-(1H-tetrazol-5-yl)-biphenyl-4-ylmethyl]-5-propyl-1H-pyrazole-3-carbonyl}amino)-4-(2-trifluoromethylphenyl)butyric acid]"
≤ 10,≤ 1000,"CCCc1cc(C(=O)N[C@H](Cc2ccccc2)[C@@H](O)C(=O)O)nn1Cc1ccc(-c2ccccc2S(=O)(=O)NC(=O)c2ccno2)cc1 [Example 7-6, (2R,3R)-2-Hydroxy-3-[(1-{2′-[(isoxazole-5-carbonyl)sulfamoyl]biphenyl-4-ylmethyl}-5-propyl-1H-pyrazole-3-carbonyl)amino]-4-phenylbutyric acid]"
≤ 10,≤ 100,"CCCc1cc(C(=O)N[C@@H](CC(=O)O)CC(C)C)nn1Cc1ccc(-c2ccccc2-c2nnn[nH]2)nc1 [Example 14-7, (R)-5-Methyl-3-[(5-propyl-1-{6-[2-(1H-tetrazol-5-yl)-phenyl]-pyridin-3-ylmethyl}-1H-pyrazole-3-carbonyl)-amino]hexanoic acid]"
